Data taken from patent publication US8710063B2, “Purine compounds used as CB2 agonists” (priority 2010, dated 2014).
Structures can show the parent of a compound that is named as a salt.

Experiments:
human CB2 receptor = target: T1, human CB2 receptor (Homo sapiens, UniProt P34972); assay: Displacement of 3H-CP55940 from human CB2 receptors; assay type: binding; conditions: displacement of 3H-CP55940, human CB2 membrane homogenates
T1 construct: expressed in transfected cells
Protocol: (§1) Displacement of 3H-CP55940 from Human and Rat CB2 Receptors
(§2) The methods of Felder et al. (Mol. Pharmaocol. 48:443-450, 1995) were utilized with minor modifications. Specifically, membrane homogenates from cells stably or transiently expressing the human or rat CB2 receptor were washed by centrifugation and diluted into a 50 mM Tris HCl (pH 7.4), 5 mM MgCl2, 2.5 mM EDTA, and 0.1% BSA buffer. Specific binding of 3H-CP55940 was defined with 1 μM CP55940. The ability of compounds to displace specific 3H-CP55940 binding was tested over a range of concentrations in the Tris, MgCl2, EDTA, BSA buffer in the presence of 1% dimethyl sulfoxide by incubating at room temperature for 90 minutes in a volume of 300 μl. Unifilter 96-well microplates pretreated with 0.5% polyvinylpyrrolidone, 0.1% polysorbate 20 in water were washed three times with cold Tris buffer. The reaction mixture was then transferred to the filter plate immediately before terminating the incubation by rapid filtration and three 200 μl washes with cold Tris buffer. After the filter plates dried, microscint 20 was added to each well, the plate sealed and counted for determination of disintegrations per minute. The displacement curves were graphed and the resulting Ki values determined utilizing Graphpad Prism.

rat CB2 receptor = target: T2, rat CB2 receptor (Rattus norvegicus, UniProt Q9QZN9); assay: Displacement of 3H-CP55940 from rat CB2 receptors; assay type: binding; conditions: displacement of 3H-CP55940, rat CB2 membrane homogenates
T2 construct: expressed in transfected cells
T2 sequence (Q9QZN9 1-360): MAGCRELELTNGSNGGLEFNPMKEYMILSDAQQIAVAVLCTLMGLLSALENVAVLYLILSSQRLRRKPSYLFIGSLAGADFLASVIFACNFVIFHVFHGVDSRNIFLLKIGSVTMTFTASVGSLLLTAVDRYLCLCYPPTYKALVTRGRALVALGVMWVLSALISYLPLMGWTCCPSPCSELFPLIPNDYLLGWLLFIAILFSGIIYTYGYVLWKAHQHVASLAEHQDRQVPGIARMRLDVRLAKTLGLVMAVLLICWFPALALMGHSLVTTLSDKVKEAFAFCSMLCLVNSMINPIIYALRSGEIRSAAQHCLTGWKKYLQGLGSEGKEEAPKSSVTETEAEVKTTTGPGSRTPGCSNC
Protocol: as §1, §2

hCB2-Sf9 membranes = target: T3, hCB2-Sf9 membranes (Homo sapiens, UniProt P34972); assay: CB2 in vitro functional assay, SPA based GTP-γ-35S binding, agonist mode (antibody capture); assay type: biochemical; conditions: normalized to methanandamide, read-out: relative EC50 value for CB2
T3 construct: expressed in transfected cells; host or cells: Sf9 insect cells
T3 sequence (P34972 whole entry): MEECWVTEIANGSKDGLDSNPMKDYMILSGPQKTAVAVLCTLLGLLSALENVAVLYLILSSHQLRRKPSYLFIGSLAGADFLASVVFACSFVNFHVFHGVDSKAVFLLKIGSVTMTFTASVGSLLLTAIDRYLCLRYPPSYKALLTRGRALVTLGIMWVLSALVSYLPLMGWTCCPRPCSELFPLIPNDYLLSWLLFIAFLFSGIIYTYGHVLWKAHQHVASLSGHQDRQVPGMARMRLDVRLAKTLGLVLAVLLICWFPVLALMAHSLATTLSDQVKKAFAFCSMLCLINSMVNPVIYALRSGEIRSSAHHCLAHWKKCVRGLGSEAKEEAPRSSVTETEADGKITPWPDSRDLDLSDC
Protocol: (§3) CB1 and CB2 In Vitro Functional Assays
(§4) Exemplified compounds are tested in agonist mode using a SPA based GTP-γ-^35S binding assay. All assay components are prepared in assay buffer made up of 20 mM HEPES, 100 mM NaCl, 5 mM MgCl2, (pH 7.4 at room temperature). Semi-log compound dilutions are done in assay buffer containing BSA (final 0.125%). GTP-γ^35-S binding is measured in a 96 well format using a whole membrane capture technique for the CB1 assay and modifications of an antibody capture technique previously described (DeLapp et al. J Pharmacol Exp Ther 289:946-955, 1999) for the CB2 assay. All incubations are done at room temperature.
hCB2-Sf9 membranes and GDP (1 uM final) are added to assay buffer and homogenized. Diluted compounds and membranes are added to the assay plate and pre-incubated for 15 minutes. This is followed by addition of GTP-γ-^35S ([…] final) and another 35 minute incubation. Next a mixture containing Nonidet P40 detergent (0.2% final), anti-Gi antibody (final dilution of 1:362), and 1.25 mg anti-rabbit antibody scintillation proximity assay beads are added. The plates are then sealed, vortexed, and incubated for an additional 2 hours before centrifuging and counting as for CB1.
To analyze data, first subtract background from all wells. […]

hCB1-CHO membranes = target: T4, hCB1-CHO membranes (Homo sapiens, UniProt P21554); assay: CB1 in vitro functional assay, SPA based GTP-γ-35S binding, agonist mode (whole membrane capture); assay type: biochemical; conditions: normalized to methanandamide, read-out: relative EC50 value for CB1
T4 construct: expressed in transfected cells; host or cells: CHO cells
T4 sequence (P21554 whole entry): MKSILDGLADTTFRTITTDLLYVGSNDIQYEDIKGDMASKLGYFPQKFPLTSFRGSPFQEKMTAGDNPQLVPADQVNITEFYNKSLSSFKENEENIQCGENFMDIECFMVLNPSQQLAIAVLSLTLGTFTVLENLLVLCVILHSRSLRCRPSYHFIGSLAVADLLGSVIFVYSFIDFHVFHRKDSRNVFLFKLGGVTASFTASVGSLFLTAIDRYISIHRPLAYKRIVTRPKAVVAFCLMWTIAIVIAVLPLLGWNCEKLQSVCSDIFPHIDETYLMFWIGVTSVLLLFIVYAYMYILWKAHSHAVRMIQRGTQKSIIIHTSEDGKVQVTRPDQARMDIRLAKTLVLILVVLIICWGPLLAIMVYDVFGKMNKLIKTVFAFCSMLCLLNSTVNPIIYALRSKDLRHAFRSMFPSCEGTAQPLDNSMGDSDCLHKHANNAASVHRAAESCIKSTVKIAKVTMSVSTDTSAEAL
Protocol: as §3, §4
hCB1-CHO membranes, GDP (1 uM final), and saponin (10 ug/mL final) are added to assay buffer and homogenized. Diluted compounds, GTP-γ-^35S (500 nM final) and membranes are added to the assay plate and incubated for 30 minutes. Then 1 mg/well Wheatgerm Agglutinin SPA bead is added, and the plates are sealed, vortexed, and incubated for an additional hour. Plates are then centrifuged at 700×g for 10 minutes and counted for 1 minute per well using a scintillation counter.
To analyze data, first subtract background from all wells. Determine percent agonist efficacy by normalizing agonist/inverse agonist dose response data to a full agonist (methanandamide) response. Analyze the data using a 4-parameter logistic reduced fit with Activity Base and XLFit3.

[1] = test system: Male Harlan Sprague-Dawley rats; assay: Animal model of dural plasma protein extravasation (PPE); assay type: in vivo; conditions: 10 mg/kg, 2 hours post po dose, rat; saline controls approximately 2.0, full prevention approximately 1.0
male Lewis rats = assay: Monoiodoacetate (MIA) model, incapacitance testing; assay type: in vivo; conditions: dosed once, rat MIA model
Protocol: Monoiodoacetate (MIA) Model
For all studies male Lewis rats of approximately 8 weeks of age at the time of MIA injection are used to measure pain in the MIA model. The rats are housed in groups of 2 or 3 per cage and maintained in a constant temperature and on a 12 hour light/12 hour dark cycle. Animals have free access to food and water at all times except during data collection.
In the standard MIA model the right knees of each rat are injected with 0.3 mg MIA in 50 ul of saline and the left knees with 50 ul of saline. Pain is measured at varying times after MIA injection (not normally before 10 day post MIA injection) using incapacitance testing. This measures the difference in hind paw weight bearing between the MIA and saline injected knees, and each measurement is the average of 3 separate measurements each measured over 1 second.
For studies with CB2 agonists rats are randomized into dose groups (n=5 or 6) and then dosed once with the compound under investigation. Dosing is staggered by 15 minutes for each rat and at a predetermined time post-dose (usually 2 hours), pain measured using incapacitance testing. Studies are routinely run with 4 groups, vehicle (1% carboxy methyl cellulose in water plus 0.25% polysorbate 80) and 3 compound groups which can be either single compounds at a single dose or the same compound at 3 doses. Results are reported as the difference in weight bearing between saline and MIA injected knees and statistical comparisons are made between vehicle treated and compound treated animals to assess the effect of compounds on knee pain in the model.

T1 sequence (P34972 whole entry): as the sequence (P34972 whole entry) above

Row | SMILES | Ki (human CB2 receptor) [µM] | Ki (rat CB2 receptor) [µM] | EC50 (hCB2-Sf9 membranes) [µM] | EC50 (hCB1-CHO membranes) [µM] | extravasation ratio (stimulated side over unstimulated side of dura) [1] | pain versus vehicle (difference in hind paw weight bearing) (male Lewis rats; dose 0.3 mg/kg) | pain versus vehicle (difference in hind paw weight bearing) (male Lewis rats; dose 1 mg/kg) | further results
1 | CCN1CCN(c2nc(C)nc3c2nc(-c2ccccc2Cl)n3CCS(C)(=O)=O)CC1 [Example 2, 8-(2-Chlorophenyl)-6-(4-ethylpiperazin-1-yl)-2-methyl-9-(2-methylsulfonylethyl)purine hydrochloride] | 0.0284 | 0.0487 | 0.0172 | 5.56 | – | – | – | –
2 | COC(=O)NCCn1c(-c2ccccc2Cl)nc2c(N3CCN(CCF)CC3)nc(C)nc21 [Example 16, Methyl N-[2-[8-(2-chlorophenyl)-6-[4-(2-fluoroethyl)piperazin-1-yl]-2-methyl-purin-9-yl]ethyl]carbamate hydrochloride] | – | – | 0.0135 | > 100 | – | – | – | –
3 | Cc1nc(N2CCN(C)CC2)c2nc(-c3ccccc3Cl)n(CCS(C)(=O)=O)c2n1.Cl [Example 1, 8-(2-Chlorophenyl)-6-(4-methylpiperazin-1-yl)-2-methyl-9-(2-methylsulfonylethyl)purine hydrochloride] | – | – | – | – | 1.12 | reduce pain versus vehicle | reduce pain versus vehicle | –
4 | CC(=O)NCCn1c(-c2ccccc2Cl)nc2c(N3CCN(CCF)CC3)nc(C)nc21.Cl [Example 17, N-[2-[8-(2-chlorophenyl)-6-[4-(2-fluoroethyl)piperazin-1-yl]-2-methyl-purin-9-yl]ethyl]acetamide hydrochloride] | – | – | – | – | – | reduce pain versus vehicle | reduce pain versus vehicle | pain versus vehicle (difference in hind paw weight bearing) (male Lewis rats; dose 0.1 mg/kg): reduce pain versus vehicle
5 | CCN1CCN(c2nc(C)nc3c2nc(-c2ccccc2Cl)n3CCNC(C)=O)CC1.Cl [Example 7, N-[2-[8-(2-Chlorophenyl)-6-(4-ethylpiperazin-1-yl)-2-methyl-purin-9-yl]ethyl]acetamide hydrochloride] | – | – | – | – | 1.18 | – | – | –
6 | Cc1nc(N2CCN(C)CC2)c2nc(-c3ccccc3Cl)n(CC#N)c2n1 [Example 3, 2-[8-(2-Chlorophenyl)-2-methyl-6-(4-methylpiperazin-1-yl)purin-9-yl]acetonitrile hydrochloride] | 0.0278 | 0.0126 | – | – | – | – | – | –
